{"source": "patent US4287206A", "about": "“Halogen derivatives of 8-hydroxycarboxylic acids; the processes for their preparation and medicaments in which they are present” (priority 1978, dated 1981)", "key": {"[1]": {"test_system": "mice", "assay": "Anti-apomorphine activity in mice (hypothermia caused by apomorphine)", "assay_type": "in vivo"}, "[2]": {"test_system": "mice", "assay": "Anti-oxotremorine activity in mice (hypothermia induced by oxotremorine)", "assay_type": "in vivo", "conditions": "oxotremorine 0.5 mg.kg^-1 i.p.", "experimental": "Anti-oxotremorine activity in mice\nAt time 0, the mice receive oxotremorine (0.5 mg.kg^-1) by intraperitoneal administration; after 30 minutes, either distilled water or the medicament according to the invention, obtained in accordance with Example I, is administered to the mice intraperitoneally or orally.\nThe mice are then observed and the trembling is rated from 0 to 3 as a function of its intensity, every 10 minutes for 30 minutes. Moreover, the existence of peripheral symptoms (tears, hypersialosis and defections) is observed for 2 hours, in the presence or absence of trembling. The rectal temperature is measured every 30 minutes for 2 hours, after administration of oxotremorine."}}}
{"molecule": "CC1CC(c2ccc(Cl)cc2)C(c2ccccc2)C(=O)O1", "note": "(stereo not drawn) [Example I, trans-4-(4'-chlorophenyl)-6-methyl-3-phenyl-3,4,5,6-tetrahydropyrone-2]", "values": [{"measurement": "Rectal temperatures, results in % inhibition of the hypothermia", "setting": "[1]; 16 mg/kg intraperitoneal, apomorphine 16 mg.kg^-1 subcutaneously", "value": 51, "unit": "%"}, {"measurement": "Rectal temperatures, results in % inhibition of the hypothermia", "setting": "[1]; 16 mg/kg oral, apomorphine 1 mg.kg^-1 subcutaneously", "value": 0.5, "unit": "%"}, {"measurement": "Rectal temperatures, results in % inhibition of the hypothermia", "setting": "[1]; 16 mg/kg oral, apomorphine 16 mg.kg^-1 subcutaneously", "value": 42, "unit": "%"}, {"measurement": "Rectal temperatures, results in % inhibition of the hypothermia", "setting": "[1]; 32 mg/kg oral, apomorphine 1 mg.kg^-1 subcutaneously", "value": 45, "unit": "%"}, {"measurement": "Rectal temperatures, results in % inhibition of the hypothermia", "setting": "[1]; 32 mg/kg oral, apomorphine 16 mg.kg^-1 subcutaneously", "value": 77, "unit": "%"}, {"measurement": "Rectal temperatures, results in % inhibition of the hypothermia", "setting": "[1]; 64 mg/kg oral, apomorphine 1 mg.kg^-1 subcutaneously", "value": 51, "unit": "%"}, {"measurement": "Rectal temperatures, results in % inhibition of the hypothermia", "setting": "[1]; 64 mg/kg oral, apomorphine 16 mg.kg^-1 subcutaneously", "value": 86, "unit": "%"}, {"measurement": "Rectal temperatures, results in % inhibition of the hypothermia", "setting": "[1]; 128 mg/kg oral, apomorphine 1 mg.kg^-1 subcutaneously", "value": 68, "unit": "%"}, {"measurement": "Rectal temperatures, results in % inhibition of the hypothermia", "setting": "[1]; 128 mg/kg oral, apomorphine 16 mg.kg^-1 subcutaneously", "value": 81, "unit": "%"}, {"measurement": "Rectal temperatures, results in % inhibition of the hypothermia", "setting": "[1]; 256 mg/kg oral, apomorphine 1 mg.kg^-1 subcutaneously", "value": 89, "unit": "%"}, {"measurement": "Rectal temperatures, results in % inhibition of the hypothermia", "setting": "[1]; 256 mg/kg oral, apomorphine 16 mg.kg^-1 subcutaneously", "value": 116, "unit": "%"}, {"measurement": "Rectal temperatures °C.", "setting": "[2]; 1 mg/kg oral, 30 min", "value": "29.8 ± 0.40", "unit": "°C"}, {"measurement": "Rectal temperatures °C.", "setting": "[2]; 1 mg/kg oral, 60 min", "value": "27.8 ± 0.65", "unit": "°C"}, {"measurement": "Rectal temperatures °C.", "setting": "[2]; 1 mg/kg oral, 90 min", "value": "27.8 ± 1.36", "unit": "°C"}, {"measurement": "Rectal temperatures °C.", "setting": "[2]; 1 mg/kg oral, 120 min", "value": "28.0 ± 1.65", "unit": "°C"}, {"measurement": "Rectal temperatures °C.", "setting": "[2]; 2 mg/kg intraperitoneal, 30 min", "value": "30.8 ± 0.43", "unit": "°C"}, {"measurement": "Rectal temperatures °C.", "setting": "[2]; 2 mg/kg intraperitoneal, 60 min", "value": "29.1 ± 0.46", "unit": "°C"}, {"measurement": "Rectal temperatures °C.", "setting": "[2]; 2 mg/kg intraperitoneal, 90 min", "value": "29.4 ± 0.52", "unit": "°C"}, {"measurement": "Rectal temperatures °C.", "setting": "[2]; 2 mg/kg intraperitoneal, 120 min", "value": "29.9 ± 0.77", "unit": "°C"}, {"measurement": "Rectal temperatures °C.", "setting": "[2]; 2 mg/kg oral, 30 min", "value": "31.5 ± 0.43", "unit": "°C"}, {"measurement": "Rectal temperatures °C.", "setting": "[2]; 2 mg/kg oral, 60 min", "value": "31.0 ± 0.71", "unit": "°C"}, {"measurement": "Rectal temperatures °C.", "setting": "[2]; 2 mg/kg oral, 90 min", "value": "31.2 ± 0.86", "unit": "°C"}, {"measurement": "Rectal temperatures °C.", "setting": "[2]; 2 mg/kg oral, 120 min", "value": "31.9 ± 1.14", "unit": "°C"}, {"measurement": "Rectal temperatures °C.", "setting": "[2]; 4 mg/kg intraperitoneal, 30 min", "value": "30.2 ± 0.36", "unit": "°C"}, {"measurement": "Rectal temperatures °C.", "setting": "[2]; 4 mg/kg intraperitoneal, 60 min", "value": "31.8 ± 0.42", "unit": "°C"}, {"measurement": "Rectal temperatures °C.", "setting": "[2]; 4 mg/kg intraperitoneal, 90 min", "value": "33.5 ± 0.49", "unit": "°C"}, {"measurement": "Rectal temperatures °C.", "setting": "[2]; 4 mg/kg intraperitoneal, 120 min", "value": "35.7 ± 0.40", "unit": "°C"}, {"measurement": "Rectal temperatures °C.", "setting": "[2]; 4 mg/kg oral, 30 min", "value": "31.8 ± 0.38", "unit": "°C"}, {"measurement": "Rectal temperatures °C.", "setting": "[2]; 4 mg/kg oral, 60 min", "value": "31.0 ± 0.34", "unit": "°C"}, {"measurement": "Rectal temperatures °C.", "setting": "[2]; 4 mg/kg oral, 90 min", "value": "31.6 ± 0.91", "unit": "°C"}, {"measurement": "Rectal temperatures °C.", "setting": "[2]; 4 mg/kg oral, 120 min", "value": "32.4 ± 0.89", "unit": "°C"}, {"measurement": "Rectal temperatures °C.", "setting": "[2]; 8 mg/kg intraperitoneal, 30 min", "value": "32.1 ± 0.52", "unit": "°C"}, {"measurement": "Rectal temperatures °C.", "setting": "[2]; 8 mg/kg intraperitoneal, 60 min", "value": "31.3 ± 0.52", "unit": "°C"}, {"measurement": "Rectal temperatures °C.", "setting": "[2]; 8 mg/kg intraperitoneal, 90 min", "value": "32.2 ± 0.61", "unit": "°C"}, {"measurement": "Rectal temperatures °C.", "setting": "[2]; 8 mg/kg intraperitoneal, 120 min", "value": "33.8 ± 0.91", "unit": "°C"}, {"measurement": "Rectal temperatures °C.", "setting": "[2]; 8 mg/kg oral, 30 min", "value": "32.6 ± 0.32", "unit": "°C"}, {"measurement": "Rectal temperatures °C.", "setting": "[2]; 8 mg/kg oral, 60 min", "value": "32.4 ± 0.29", "unit": "°C"}, {"measurement": "Rectal temperatures °C.", "setting": "[2]; 8 mg/kg oral, 90 min", "value": "32.9 ± 0.38", "unit": "°C"}, {"measurement": "Rectal temperatures °C.", "setting": "[2]; 8 mg/kg oral, 120 min", "value": "33.8 ± 0.56", "unit": "°C"}, {"measurement": "Rectal temperatures °C.", "setting": "[2]; 16 mg/kg intraperitoneal, 30 min", "value": "32.9 ± 0.46", "unit": "°C"}, {"measurement": "Rectal temperatures °C.", "setting": "[2]; 16 mg/kg intraperitoneal, 60 min", "value": "32.0 ± 0.65", "unit": "°C"}, {"measurement": "Rectal temperatures °C.", "setting": "[2]; 16 mg/kg intraperitoneal, 90 min", "value": "32.8 ± 0.60", "unit": "°C"}, {"measurement": "Rectal temperatures °C.", "setting": "[2]; 16 mg/kg intraperitoneal, 120 min", "value": "35.9 ± 0.81", "unit": "°C"}, {"measurement": "Rectal temperatures °C.", "setting": "[2]; 16 mg/kg oral, 30 min", "value": "31.9 ± 0.53", "unit": "°C"}, {"measurement": "Rectal temperatures °C.", "setting": "[2]; 16 mg/kg oral, 60 min", "value": "31.9 ± 0.49", "unit": "°C"}, {"measurement": "Rectal temperatures °C.", "setting": "[2]; 16 mg/kg oral, 90 min", "value": "32.8 ± 0.70", "unit": "°C"}, {"measurement": "Rectal temperatures °C.", "setting": "[2]; 16 mg/kg oral, 120 min", "value": "33.6 ± 0.97", "unit": "°C"}, {"measurement": "Rectal temperatures °C.", "setting": "[2]; 32 mg/kg intraperitoneal, 30 min", "value": "32.0 ± 0.70", "unit": "°C"}, {"measurement": "Rectal temperatures °C.", "setting": "[2]; 32 mg/kg intraperitoneal, 60 min", "value": "31.2 ± 0.73", "unit": "°C"}, {"measurement": "Rectal temperatures °C.", "setting": "[2]; 32 mg/kg intraperitoneal, 90 min", "value": "32.2 ± 0.85", "unit": "°C"}, {"measurement": "Rectal temperatures °C.", "setting": "[2]; 32 mg/kg intraperitoneal, 120 min", "value": "33.2 ± 1.2", "unit": "°C"}, {"measurement": "Rectal temperatures °C.", "setting": "[2]; 32 mg/kg oral, 30 min", "value": "33.0 ± 0.60", "unit": "°C"}, {"measurement": "Rectal temperatures °C.", "setting": "[2]; 32 mg/kg oral, 60 min", "value": "32.7 ± 0.63", "unit": "°C"}, {"measurement": "Rectal temperatures °C.", "setting": "[2]; 32 mg/kg oral, 90 min", "value": "32.8 ± 0.62", "unit": "°C"}, {"measurement": "Rectal temperatures °C.", "setting": "[2]; 32 mg/kg oral, 120 min", "value": "33.7 ± 0.95", "unit": "°C"}, {"measurement": "Rectal temperatures °C.", "setting": "[2]; 64 mg/kg intraperitoneal, 30 min", "value": "34.0 ± 0.87", "unit": "°C"}, {"measurement": "Rectal temperatures °C.", "setting": "[2]; 64 mg/kg intraperitoneal, 60 min", "value": "33.0 ± 1.2", "unit": "°C"}, {"measurement": "Rectal temperatures °C.", "setting": "[2]; 64 mg/kg intraperitoneal, 90 min", "value": "33.7 ± 1.15", "unit": "°C"}, {"measurement": "Rectal temperatures °C.", "setting": "[2]; 64 mg/kg intraperitoneal, 120 min", "value": "34.5 ± 1.0", "unit": "°C"}, {"measurement": "Rectal temperatures °C.", "setting": "[2]; 64 mg/kg oral, 30 min", "value": "32.2 ± 0.32", "unit": "°C"}, {"measurement": "Rectal temperatures °C.", "setting": "[2]; 64 mg/kg oral, 60 min", "value": "31.7 ± 0.52", "unit": "°C"}, {"measurement": "Rectal temperatures °C.", "setting": "[2]; 64 mg/kg oral, 90 min", "value": "32.8 ± 0.73", "unit": "°C"}, {"measurement": "Rectal temperatures °C.", "setting": "[2]; 64 mg/kg oral, 120 min", "value": "34.1 ± 0.62", "unit": "°C"}, {"measurement": "Rectal temperatures °C.", "setting": "[2]; 128 mg/kg oral, 30 min", "value": "34.8 ± 0.80", "unit": "°C"}, {"measurement": "Rectal temperatures °C.", "setting": "[2]; 128 mg/kg oral, 60 min", "value": "34.9 ± 0.59", "unit": "°C"}, {"measurement": "Rectal temperatures °C.", "setting": "[2]; 128 mg/kg oral, 90 min", "value": "36.2 ± 0.82", "unit": "°C"}, {"measurement": "Rectal temperatures °C.", "setting": "[2]; 128 mg/kg oral, 120 min", "value": "37.1 ± 0.77", "unit": "°C"}, {"measurement": "Rectal temperatures °C.", "setting": "[2]; 256 mg/kg oral, 30 min", "value": "32.4 ± 0.63", "unit": "°C"}, {"measurement": "Rectal temperatures °C.", "setting": "[2]; 256 mg/kg oral, 60 min", "value": "31.3 ± 0.73", "unit": "°C"}, {"measurement": "Rectal temperatures °C.", "setting": "[2]; 256 mg/kg oral, 90 min", "value": "32.4 ± 1.07", "unit": "°C"}, {"measurement": "Rectal temperatures °C.", "setting": "[2]; 256 mg/kg oral, 120 min", "value": "33.9 ± 1.30", "unit": "°C"}]}
